Data: patent US20200060276A1, “THIAZOLE COMPOUND AND HERBICIDE” (OAT Agrio Co., Ltd., priority 2017, published 2020)

How the values were obtained:
Type in all cases: in vivo
[1] = system: Scirpus juncoides; assay: Test for Herbicidal Effect in Flooding Treatment (#1), SCIJU; details: for SCIJU #1 herbicidal effect (growth inhibition grade): flooding treatment at seeding, dose 2 kg/ha, visual observation on day 21; for SCIJU #1 herbicidal effect (growth inhibition rating 0-5): flooding treatment #1
Procedure: (§1) (#1) Test for Herbicidal Effect in Flooding Treatment: Styrol cups each having an opening diameter of 8 cm (about 52 cm^2) were respectively filled with soil (45 ml) which had been passed through a sieve (2 mm). Water (about 115 ml) was mixed with the soil such that the soil was flooded. After the soil stood still for 24 hours, Monochoria vaginalis, Echinochloa crus-galli (L.) P. Beauv. var. formosensis Ohwi, Cyperus difformis (umbrella sedge), and Scirpus juncoides were seeded. Each of the compounds of the present invention was dissolved in acetone, and the obtained product was then diluted with water containing Tween 80®. Each of the resultant chemical solutions was dropped on the entire surface of an associated one of treatment sections, so that each section was treated with 1 ml of the respective chemical solution (a dose of 2 kg/ha). After the treatment, the plants were grown in a glasshouse. On day 21, a survey was conducted on the herbicidal activity by visual observation, and evaluation was made according to the following criteria. 0: Growth inhibition effect is less than 10%. 1: Growth inhibition effect is equal to or greater than 10%, and less than 30%. 2; Growth inhibition effect is equal to or greater than 30%, and less than 50%. 3: Growth inhibition effect equal to or greater than 50%, and less than 70%. 4: Growth inhibition effect is equal to or greater than 70%, and less than 90%. 5: Growth inhibition effect is equal to or greater than 90%, or complete withering is achieved. ECHDG=Echinochloa crus-galli (L.) P. Beauv. var. formosensis Ohwi, MONVA=Monochoria vaginalis, SCIJU=Scirpus juncoides, CYMIC=Cyperus microiria.

[2] = system: Echinochloa crus-galli (L.) P. Beauv. var. formosensis Ohwi; assay: Test for Herbicidal Effect in Flooding Treatment (#1), ECHDG; details: for ECHDG #1 herbicidal effect (growth inhibition grade): flooding treatment at seeding, dose 2 kg/ha, visual observation on day 21; for ECHDG #1 herbicidal effect (growth inhibition rating 0-5): flooding treatment #1
Procedure: as §1

[3] = system: Echinochloa crus-galli (L.) P. Beauv. var. formosensis Ohwi; assay: Test for Herbicidal Effect in Flooding Treatment (#2), ECHDG at 2-2.5 leaf stage; details: for ECHDG (2-2.5L) #2 herbicidal effect (growth inhibition rating 0-5): flooding treatment #2, 2-2.5 leaf stage; for ECHDG (2-2.5L) #2 herbicidal effect (growth inhibition grade): flooding treatment at 2-2.5 leaf stage, dose 0.2 kg/ha, visual observation on day 21
Procedure: (#2) Test for Herbicidal Effect in Flooding Treatment: Styrol cups each having an opening diameter of 13 cm (about 130 cm^2) were respectively filled with muddy soil (500 ml). Water (about 300 ml) was mixed with the soil such that the soil was flooded. After the soil stood still for 24 hours, Echinochloa crus-galli (L.) P. Beauv. var. formosensis Ohwi was seeded. When the Echinochloa crus-galli (L.) P. Beauv. var. formosensis Ohwi grew to reach 2-2.5 leaf stage, chemical solutions were dropped on the entire surface of treatment sections, so that each section is treated with 1 ml of the respective chemical solution (a dose of 0.2 kg/ha). Each of the chemical solutions was prepared by dissolving associated one of the compounds of the present invention in acetone, followed by dilution with water containing Tween 80 g. After the treatment, the plants were grown in a glasshouse. On day 21, a survey was conducted on the herbicidal activity by visual observation, and evaluation was made according to the following criteria. 0: Growth inhibition effect is less than 10%. 1: Growth inhibition effect is equal to or greater than 10%, and less than 30%. 2; Growth inhibition effect is equal to or greater than 30%, and less than 50%. 3: Growth inhibition effect equal to or greater than 50%, and less than 70%. 4: Growth inhibition effect is equal to or greater than 70%, and less than 90%. 5: Growth inhibition effect is equal to or greater than 90%, or complete withering is achieved. ECHDG=Echinochloa crus-galli (L.) P. Beauv. var. formosensis Ohwi, MONVA=Monochoria vaginalis, SCIJU=Scirpus juncoides, CYMIC=Cyperus microiria. The herbicidal activity of the following comparative compounds A and B (the compounds disclosed Japanese Unexamined Patent Publication No. 2003-096059) were evaluated in a manner pursuant to Test Example 1. (#2).

Structure (SMILES): O=S(=O)(Cc1ccccc1OC(F)(F)C(F)F)c1ncc(Br)s1 [Compound 1C-163]
- SCIJU #1 herbicidal effect (growth inhibition grade) [1]: 5 (Growth inhibition effect is equal to or greater than 90%, or complete withering is achieved)
- ECHDG #1 herbicidal effect (growth inhibition grade) [2]: 5 (Growth inhibition effect is equal to or greater than 90%, or complete withering is achieved)

Structure (SMILES): [O-][S+](Cc1ccccc1OC(F)(F)C(F)F)c1ncc(Br)s1 (stereo not shown) [Compound 1B-23]
- ECHDG #1 herbicidal effect (growth inhibition rating 0-5) [2]: 5 (Growth inhibition effect is equal to or greater than 90%, or complete withering is achieved)
- ECHDG (2-2.5L) #2 herbicidal effect (growth inhibition rating 0-5) [3]: 4 (Growth inhibition effect is equal to or greater than 70%, and less than 90%)

Structure (SMILES): O=S(=O)(Cc1ccc(OCc2ccccc2)cc1)c1ncc(Cl)s1 [Compound 1C-120]
- SCIJU #1 herbicidal effect (growth inhibition grade) [1]: 4 (Growth inhibition effect is equal to or greater than 70%, and less than 90%)
- ECHDG #1 herbicidal effect (growth inhibition grade) [2]: 5 (Growth inhibition effect is equal to or greater than 90%, or complete withering is achieved)
- ECHDG (2-2.5L) #2 herbicidal effect (growth inhibition grade) [3]: 2 (Growth inhibition effect is equal to or greater than 30%, and less than 50%)

Structure (SMILES): O=S(=O)(Cc1c(F)cccc1OCF)c1ncc(Cl)s1 [Compound 1C-179]
- SCIJU #1 herbicidal effect (growth inhibition grade) [1]: 5 (Growth inhibition effect is equal to or greater than 90%, or complete withering is achieved)
- ECHDG #1 herbicidal effect (growth inhibition grade) [2]: 5 (Growth inhibition effect is equal to or greater than 90%, or complete withering is achieved)
- ECHDG (2-2.5L) #2 herbicidal effect (growth inhibition grade) [3]: 5 (Growth inhibition effect is equal to or greater than 90%, or complete withering is achieved)

Structure (SMILES): [O-][S+](Cc1c(Cl)cccc1OC(F)F)c1ncc(Cl)s1 (stereo not shown) [Compound 1B-4]
- SCIJU #1 herbicidal effect (growth inhibition rating 0-5) [1]: 5 (Growth inhibition effect is equal to or greater than 90%, or complete withering is achieved)
- ECHDG #1 herbicidal effect (growth inhibition rating 0-5) [2]: 5 (Growth inhibition effect is equal to or greater than 90%, or complete withering is achieved)
- ECHDG (2-2.5L) #2 herbicidal effect (growth inhibition rating 0-5) [3]: 5 (Growth inhibition effect is equal to or greater than 90%, or complete withering is achieved)

Structure (SMILES): COc1ccc(CS(=O)(=O)c2ncc(Cl)s2)c(F)c1 [Compound 1C-1]
- SCIJU #1 herbicidal effect (growth inhibition grade) [1]: 4 (Growth inhibition effect is equal to or greater than 70%, and less than 90%)
- ECHDG #1 herbicidal effect (growth inhibition grade) [2]: 5 (Growth inhibition effect is equal to or greater than 90%, or complete withering is achieved)

Structure (SMILES): O=S(=O)(Cc1ccc(F)c(Oc2ccccc2)c1)c1ncc(Cl)s1 [Compound 1C-86]
- ECHDG #1 herbicidal effect (growth inhibition grade) [2]: 5 (Growth inhibition effect is equal to or greater than 90%, or complete withering is achieved)
- ECHDG (2-2.5L) #2 herbicidal effect (growth inhibition grade) [3]: 1 (Growth inhibition effect is equal to or greater than 10%, and less than 30%)

Structure (SMILES): O=S(=O)(Cc1c(F)cccc1OS(=O)(=O)C(F)(F)F)c1ncc(Cl)s1 [Compound 1C-185]
- SCIJU #1 herbicidal effect (growth inhibition grade) [1]: 5 (Growth inhibition effect is equal to or greater than 90%, or complete withering is achieved)
- ECHDG #1 herbicidal effect (growth inhibition grade) [2]: 5 (Growth inhibition effect is equal to or greater than 90%, or complete withering is achieved)
- ECHDG (2-2.5L) #2 herbicidal effect (growth inhibition grade) [3]: 5 (Growth inhibition effect is equal to or greater than 90%, or complete withering is achieved)

Structure (SMILES): [O-][S+](Cc1c(F)cccc1OC(F)(F)F)c1ncc(Br)s1 (stereo not shown) [Compound 1B-21]
- SCIJU #1 herbicidal effect (growth inhibition rating 0-5) [1]: 5 (Growth inhibition effect is equal to or greater than 90%, or complete withering is achieved)
- ECHDG #1 herbicidal effect (growth inhibition rating 0-5) [2]: 5 (Growth inhibition effect is equal to or greater than 90%, or complete withering is achieved)
- ECHDG (2-2.5L) #2 herbicidal effect (growth inhibition rating 0-5) [3]: 5 (Growth inhibition effect is equal to or greater than 90%, or complete withering is achieved)

Structure (SMILES): [O-][S+](Cc1ccccc1OC(F)F)c1ncc(Br)s1 (stereo not shown) [Compound 1B-18]
- SCIJU #1 herbicidal effect (growth inhibition rating 0-5) [1]: 5 (Growth inhibition effect is equal to or greater than 90%, or complete withering is achieved)
- ECHDG #1 herbicidal effect (growth inhibition rating 0-5) [2]: 5 (Growth inhibition effect is equal to or greater than 90%, or complete withering is achieved)
- ECHDG (2-2.5L) #2 herbicidal effect (growth inhibition rating 0-5) [3]: 5 (Growth inhibition effect is equal to or greater than 90%, or complete withering is achieved)

Structure (SMILES): CCOC(=O)C(F)Oc1cccc(F)c1CS(=O)(=O)c1ncc(Cl)s1 (stereo not shown) [Compound 1C-182]
- SCIJU #1 herbicidal effect (growth inhibition grade) [1]: 3 (Growth inhibition effect equal to or greater than 50%, and less than 70%)
- ECHDG #1 herbicidal effect (growth inhibition grade) [2]: 5 (Growth inhibition effect is equal to or greater than 90%, or complete withering is achieved)

Structure (SMILES): CC(C)(C)[Si](C)(C)Oc1cccc(F)c1CS(=O)(=O)c1ncc(Cl)s1 [Compound 1C-178]
- SCIJU #1 herbicidal effect (growth inhibition grade) [1]: 4 (Growth inhibition effect is equal to or greater than 70%, and less than 90%)
- ECHDG #1 herbicidal effect (growth inhibition grade) [2]: 5 (Growth inhibition effect is equal to or greater than 90%, or complete withering is achieved)

Structure (SMILES): COCOc1cccc(F)c1CS(=O)(=O)c1ncc(Cl)s1 [Compound 1C-37]
- SCIJU #1 herbicidal effect (growth inhibition grade) [1]: 5 (Growth inhibition effect is equal to or greater than 90%, or complete withering is achieved)
- ECHDG #1 herbicidal effect (growth inhibition grade) [2]: 5 (Growth inhibition effect is equal to or greater than 90%, or complete withering is achieved)
- ECHDG (2-2.5L) #2 herbicidal effect (growth inhibition grade) [3]: 5 (Growth inhibition effect is equal to or greater than 90%, or complete withering is achieved)

Structure (SMILES): O=S(=O)(Cc1ccccc1OC(F)(F)C(F)F)c1ncc(Cl)s1 [Compound 1C-57]
- SCIJU #1 herbicidal effect (growth inhibition grade) [1]: 5 (Growth inhibition effect is equal to or greater than 90%, or complete withering is achieved)
- ECHDG #1 herbicidal effect (growth inhibition grade) [2]: 5 (Growth inhibition effect is equal to or greater than 90%, or complete withering is achieved)
- ECHDG (2-2.5L) #2 herbicidal effect (growth inhibition grade) [3]: 5 (Growth inhibition effect is equal to or greater than 90%, or complete withering is achieved)

Structure (SMILES): O=S(=O)(Cc1c(Cl)ccc(OC(F)F)c1F)c1ncc(Cl)s1 [Compound 1C-180]
- SCIJU #1 herbicidal effect (growth inhibition grade) [1]: 5 (Growth inhibition effect is equal to or greater than 90%, or complete withering is achieved)
- ECHDG #1 herbicidal effect (growth inhibition grade) [2]: 5 (Growth inhibition effect is equal to or greater than 90%, or complete withering is achieved)
- ECHDG (2-2.5L) #2 herbicidal effect (growth inhibition grade) [3]: 5 (Growth inhibition effect is equal to or greater than 90%, or complete withering is achieved)

Structure (SMILES): O=S(=O)(Cc1c(Cl)cc(OC(F)F)cc1Cl)c1ncc(Cl)s1 [Compound 1C-175]
- SCIJU #1 herbicidal effect (growth inhibition grade) [1]: 5 (Growth inhibition effect is equal to or greater than 90%, or complete withering is achieved)
- ECHDG #1 herbicidal effect (growth inhibition grade) [2]: 5 (Growth inhibition effect is equal to or greater than 90%, or complete withering is achieved)
- ECHDG (2-2.5L) #2 herbicidal effect (growth inhibition grade) [3]: 5 (Growth inhibition effect is equal to or greater than 90%, or complete withering is achieved)

Structure (SMILES): O=C(CCl)Oc1cccc(F)c1CS(=O)(=O)c1ncc(Cl)s1 [Compound 1C-173]
- SCIJU #1 herbicidal effect (growth inhibition grade) [1]: 4 (Growth inhibition effect is equal to or greater than 70%, and less than 90%)

Structure (SMILES): CCS(=O)(=O)c1cccc(F)c1C[S+]([O-])c1ncc(Cl)s1 (stereo not shown) [Compound 1B-28]
- SCIJU #1 herbicidal effect (growth inhibition rating 0-5) [1]: 4 (Growth inhibition effect is equal to or greater than 70%, and less than 90%)
- ECHDG #1 herbicidal effect (growth inhibition rating 0-5) [2]: 5 (Growth inhibition effect is equal to or greater than 90%, or complete withering is achieved)

Structure (SMILES): COC(=O)COc1cccc(F)c1CS(=O)(=O)c1ncc(Cl)s1 [Compound 1C-181]
- SCIJU #1 herbicidal effect (growth inhibition grade) [1]: 4 (Growth inhibition effect is equal to or greater than 70%, and less than 90%)
- ECHDG #1 herbicidal effect (growth inhibition grade) [2]: 5 (Growth inhibition effect is equal to or greater than 90%, or complete withering is achieved)

Structure (SMILES): [O-][S+](Cc1c(Cl)cccc1OC(F)(F)F)c1ncc(Br)s1 (stereo not shown) [Compound 1B-22]
- SCIJU #1 herbicidal effect (growth inhibition rating 0-5) [1]: 5 (Growth inhibition effect is equal to or greater than 90%, or complete withering is achieved)
- ECHDG (2-2.5L) #2 herbicidal effect (growth inhibition rating 0-5) [3]: 5 (Growth inhibition effect is equal to or greater than 90%, or complete withering is achieved)
